For one test, the target named is MMP9 (Mus musculus, UniProt P41245). The following applies: auf1 KO mice. As for the experimental part: (§1) Male and female mice 4-6 months of age were injected by 20 uL 1.2% BaCl2 in saline directly to the left TA muscle. Right TA muscle was left uninjured. Mice were monitored and sacrificed by protocol for 1-30 days post-injection. 2 mice per genotype per time point were studied.
Data were analyzed with an unpaired t-test.
(§2) KO male and female mice 4 months of age were given an IP injection with 25 mg/kg SB-3CT (Sigma-Aldrich) every 24 h, starting 24 h prior to BaCl2 injury with MMPSense injection. Three mice per treatment were analyzed, then means and standard deviations calculated. Data were analyzed with an unpaired t-test.

In test [1] the test system is PAX7+ satellite cell population. How it is done:
as §1
Male and female mice 4-6 months of age had their TA removed and preserved in OCT. Skeletal muscle samples were prepared as previously described (Bernet et al., “p38 MAPK Signaling Underlies a Cell-autonomous Loss of Stem Cell Self-renewal in Skeletal Muscle of Aged Mice,” Nature Medicine 20:265-271 (2014), which is hereby incorporated by reference in its entirety). Samples were post-fixed in 4% paraformaldehyde and blocked in 3% BSA in TBS-T. Primary antibodies were incubated at 4° C. overnight. Alexa Fluor donkey 488, 555, and 647 secondary antibodies were used at 1:500 and incubated for 1 hour at room temperature. Slides were sealed with Vectashield with DAPI. The following antibody dilutions were used: rat antibody to Laminin (Sigma, L0663, 1:250), mouse antibody to PAX7 (Santa Cruz Biotechnology, SC-81648, 1:500), goat antibody to hnRNPD (Santa Cruz Biotechnology, SC-22368, 1:250).
Images were acquired using a Zeiss LSM 700 confocal microscope, primarily with the 20× lens. Images were processed and scored using ImageJ64. If needed, color balance was adjusted linearly for the entire image and all images in experimental set. All images were quantified based on field of view. At least 5 images per experimental animal and at least 2 animals per genotype were used for all experiments.
as §2

Bounds are passed on as bounds.

Data on one compound can be found in US20180163178A1, “AUF1 ENCODING COMPOSITIONS FOR MUSCLE CELL UPTAKE, SATELLITE CELL POPULATIONS, AND SATELLITE CELL MEDIATED MUSCLE GENERATION” (priority 2015, published 2018).

MMP9, sequence (P41245 108-730): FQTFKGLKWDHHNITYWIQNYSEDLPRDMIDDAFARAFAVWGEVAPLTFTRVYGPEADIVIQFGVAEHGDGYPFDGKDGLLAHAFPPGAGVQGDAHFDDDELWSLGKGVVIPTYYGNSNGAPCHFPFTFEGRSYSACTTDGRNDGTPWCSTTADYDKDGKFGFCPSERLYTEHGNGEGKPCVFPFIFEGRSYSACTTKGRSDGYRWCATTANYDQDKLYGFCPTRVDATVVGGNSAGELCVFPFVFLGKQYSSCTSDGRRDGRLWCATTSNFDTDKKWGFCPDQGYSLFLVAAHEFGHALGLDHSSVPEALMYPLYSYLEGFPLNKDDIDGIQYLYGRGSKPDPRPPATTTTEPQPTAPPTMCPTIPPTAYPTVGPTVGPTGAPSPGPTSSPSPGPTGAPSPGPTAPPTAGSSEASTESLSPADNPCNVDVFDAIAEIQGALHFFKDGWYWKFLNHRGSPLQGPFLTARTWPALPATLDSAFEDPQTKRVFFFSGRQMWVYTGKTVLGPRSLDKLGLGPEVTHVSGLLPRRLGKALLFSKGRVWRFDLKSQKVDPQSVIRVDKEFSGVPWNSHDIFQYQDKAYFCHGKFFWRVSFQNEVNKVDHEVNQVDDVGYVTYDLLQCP

As to `O=S(=O)(CC1CS1)c1ccc(Oc2ccccc2)cc1` (centres unmarked) [SB-3CT], on MMP9 (SB-3CT IP daily from 24 h prior to BaCl2 TA injury, injured TA 24 h post-injury, vs untreated KO), the “reduction in MMP9 activity (bioluminescence analysis, FIG. 11B)” value was greater than 5 fold. Moreover, the “MMP9 activity at the site of IP injection (FIG. 11A)” value on MMP9 (SB-3CT IP daily, IVIS imaging) is “near complete extinction of MMP9 activity”. At MMP9 (SB-3CT IP daily, IVIS imaging 24 h after injury), the “MMP9 activity in the injured TA muscle (FIG. 11A)” value is reported as “significantly reduced MMP9 activity”. Moreover, the “expansion of the PAX7+ satellite cell population (FIG. 11C)” value in test [1] (SB-3CT treated auf1 KO mice, 7 days post-injury) was “significant increased expansion”. Besides, in test [1] (auf1 KO mice, SB-3CT treatment, 7 days post-injury, vs untreated KO), the “increase in the PAX7+ satellite cell population (FIG. 11D)” value is roughly 4 fold. Moreover, in test [1] (injured auf1 KO mice, SB-3CT treatment), the muscle wound repair result is reported as “restoration of muscle wound repair”. Also, the “muscle fiber morphology (FIG. 11C)” value in test [1] (injured, SB-3CT treated auf1 KO mice) is listed as “near-normal muscle fibers were evident”. Further, the “Laminin expression (FIG. 11C)” value in test [1] (injured, SB-3CT treated auf1 KO mice, 7 days post-injury) is reported as “strongly increased”.
